Laboratory results reported in patent US11427548B2 (Arvinas Operations, Inc., priority 2015, dated 2022).
Read-outs that look alike come from different tables or passages of the source.

What was measured:
Androgen Receptor [1] = molecular target: T1, Androgen Receptor (Homo sapiens, UniProt P10275); assay: Androgen Receptor ELISA assay (PathScan AR ELISA) in VCaP cells: AR degradation, Dmax and DC50; format: cell-based
T1 construct: endogenous in cells; host or cells: VCaP cells
T1 sequence (P10275 1-920): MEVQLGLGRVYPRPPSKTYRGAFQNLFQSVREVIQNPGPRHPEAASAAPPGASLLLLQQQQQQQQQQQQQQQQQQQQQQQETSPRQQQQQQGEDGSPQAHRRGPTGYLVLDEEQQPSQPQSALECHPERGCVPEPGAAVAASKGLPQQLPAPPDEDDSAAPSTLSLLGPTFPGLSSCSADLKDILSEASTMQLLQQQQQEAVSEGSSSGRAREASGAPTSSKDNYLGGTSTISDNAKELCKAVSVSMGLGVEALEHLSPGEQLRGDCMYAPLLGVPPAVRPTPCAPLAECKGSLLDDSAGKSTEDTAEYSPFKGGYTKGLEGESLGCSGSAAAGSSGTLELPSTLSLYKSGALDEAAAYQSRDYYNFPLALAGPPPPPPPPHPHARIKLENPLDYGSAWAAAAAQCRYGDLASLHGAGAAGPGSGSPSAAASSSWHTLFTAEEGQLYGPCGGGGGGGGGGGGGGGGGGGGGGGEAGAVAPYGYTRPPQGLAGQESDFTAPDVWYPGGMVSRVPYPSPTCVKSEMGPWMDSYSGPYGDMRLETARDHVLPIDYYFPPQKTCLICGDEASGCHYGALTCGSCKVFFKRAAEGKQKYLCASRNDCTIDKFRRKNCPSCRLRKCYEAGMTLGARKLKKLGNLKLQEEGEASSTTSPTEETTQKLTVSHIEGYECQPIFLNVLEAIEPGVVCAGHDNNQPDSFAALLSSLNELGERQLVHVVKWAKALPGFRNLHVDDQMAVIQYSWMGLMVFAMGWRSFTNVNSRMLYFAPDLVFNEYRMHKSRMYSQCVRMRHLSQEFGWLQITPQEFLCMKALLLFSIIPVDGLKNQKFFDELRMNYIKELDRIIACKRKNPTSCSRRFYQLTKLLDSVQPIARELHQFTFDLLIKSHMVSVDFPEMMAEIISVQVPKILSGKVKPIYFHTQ
In short: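 After 24 h exposure of VCaP cells (charcoal-stripped serum, 0.1 nM R1881 agonist, 0.1% DMSO) to seven half-log compound concentrations, residual AR in lysates was measured by PathScan ELISA (TMB absorbance, 450 nm). Cells were plated at 30,000/well and grown at least 3 days beforehand.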

Androgen Receptor [2] = molecular target: T2, Androgen Receptor (Homo sapiens, UniProt P10275+P40337, T878A); assay: Androgen Receptor ELISA assay (PathScan AR ELISA) in LNCaP cells: AR degradation, Dmax and DC50; format: cell-based; conditions: for DC50: concentration that caused 50% Androgen Receptor degradation; for Dmax: highest percentage of Androgen Receptor degradation observed
T2 construct: Compounds have been evaluated in this assay in LNCaP and/or VCaP cells utilizing similar protocols; endogenous in cells; host or cells: LNCaP cells
T2 sequence (P10275 whole entry T878A): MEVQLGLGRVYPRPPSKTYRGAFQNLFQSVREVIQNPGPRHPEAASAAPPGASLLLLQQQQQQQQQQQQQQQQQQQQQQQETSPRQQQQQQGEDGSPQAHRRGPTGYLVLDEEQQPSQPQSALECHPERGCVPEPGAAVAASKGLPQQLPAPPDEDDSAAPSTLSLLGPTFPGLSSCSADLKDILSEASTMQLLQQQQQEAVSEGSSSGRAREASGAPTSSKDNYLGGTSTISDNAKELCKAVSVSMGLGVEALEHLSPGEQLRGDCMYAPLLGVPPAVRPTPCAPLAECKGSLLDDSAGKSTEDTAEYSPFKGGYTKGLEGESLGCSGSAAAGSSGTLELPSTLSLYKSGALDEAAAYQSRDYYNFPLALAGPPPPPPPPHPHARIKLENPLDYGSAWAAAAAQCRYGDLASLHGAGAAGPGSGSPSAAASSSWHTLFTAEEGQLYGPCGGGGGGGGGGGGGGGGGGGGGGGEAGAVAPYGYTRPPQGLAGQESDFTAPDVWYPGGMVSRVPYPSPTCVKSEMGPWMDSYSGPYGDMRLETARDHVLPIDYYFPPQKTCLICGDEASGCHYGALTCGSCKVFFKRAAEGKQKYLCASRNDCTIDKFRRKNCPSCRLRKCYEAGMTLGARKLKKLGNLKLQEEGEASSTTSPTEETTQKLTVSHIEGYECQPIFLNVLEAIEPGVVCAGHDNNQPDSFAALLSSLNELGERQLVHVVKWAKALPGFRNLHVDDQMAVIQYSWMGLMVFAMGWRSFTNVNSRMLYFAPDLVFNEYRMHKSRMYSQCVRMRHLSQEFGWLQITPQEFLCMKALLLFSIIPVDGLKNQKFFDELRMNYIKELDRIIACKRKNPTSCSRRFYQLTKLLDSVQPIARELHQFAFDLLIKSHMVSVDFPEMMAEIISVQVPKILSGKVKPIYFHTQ
T2 sequence (P40337 whole entry): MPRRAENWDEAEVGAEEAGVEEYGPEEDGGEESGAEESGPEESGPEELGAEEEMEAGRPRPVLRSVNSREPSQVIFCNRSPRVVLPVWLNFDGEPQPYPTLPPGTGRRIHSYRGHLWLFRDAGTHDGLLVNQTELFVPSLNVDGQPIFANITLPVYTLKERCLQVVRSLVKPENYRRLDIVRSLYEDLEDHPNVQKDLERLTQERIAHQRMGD
T2 sequence (Q15369 whole entry partner): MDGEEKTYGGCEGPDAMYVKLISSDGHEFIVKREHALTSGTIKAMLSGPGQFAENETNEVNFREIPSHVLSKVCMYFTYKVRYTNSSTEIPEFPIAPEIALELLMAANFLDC
T2 sequence (Q15370 whole entry partner): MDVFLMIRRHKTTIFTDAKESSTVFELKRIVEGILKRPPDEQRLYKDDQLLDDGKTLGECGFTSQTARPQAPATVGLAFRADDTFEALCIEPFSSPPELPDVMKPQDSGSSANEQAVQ

[3] = read-out: VCaP DC50; concentration that caused 50% Androgen Receptor degradation, VCaP cells
[4] = VCaP, highest percentage of Androgen Receptor degradation observed, VCaP cells; read-out: VCaP Dmax (%)
[5] = concentration that caused 50% Androgen Receptor degradation, VCaP cells; read-out: VCaP DC50

| Compound | Dmax (Androgen Receptor [1]; VCaP, read-out: VCaP Dmax (%)) | DC50 (Androgen Receptor [1]; [3]) | DC50 (Androgen Receptor [2]) | Dmax (Androgen Receptor [2]) | Dmax (Androgen Receptor [1]; [4]) | DC50 (Androgen Receptor [1]; [5]) |
| --- | --- | --- | --- | --- | --- | --- |
| Cc1ncsc1-c1ccc(CNC(=O)[C@@H]2C[C@@H](O)CN2C(=O)[C@@H](NC(=O)CO[C@H](C)[C@@H](C)OCCOCCOc2ccc(N3C(=S)N(c4ccc(C#N)c(C(F)(F)F)c4)C(=O)C3(C)C)cc2)C(C)(C)C)cc1 [Example 22, (2S,4R)-1-[(2S)-2-(2-{[(2R,3R)-3-{2-[2-(4-{3-[4-cyano-3-(trifluoromethyl)phenyl]-5,5-dimethyl-4-oxo-2-sulfanylideneimidazolidin-1-yl}phenoxy)ethoxy]ethoxy}butan-2-yl]oxy}acetamido)-3,3-dimethylbutanoyl]-4-hydroxy-N-{[4-(4-methyl-1,3-thiazol-5-yl)phenyl]methyl}pyrrolidine-2-carboxamide] | 26 to 50% | 51 to 500 nM | < 50 nM | 51 to 70% | – | – |
| Cc1ncsc1-c1ccc([C@H](C)NC(=O)[C@@H]2C[C@@H](O)CN2C(=O)[C@@H](NC(=O)COCCCCOCCCCOc2ccc(N3C(=S)N(c4ccc(C#N)c(C(F)(F)F)c4)C(=O)C3(C)C)cc2F)C(C)(C)C)cc1 [Example 25, (2S,4R)-1-[(2S)-2-(2-{4-[4-(4-{3-[4-cyano-3-(trifluoromethyl)phenyl]-5,5-dimethyl-4-oxo-2-sulfanylideneimidazolidin-1-yl}-2-fluorophenoxy)butoxy]butoxy}acetamido)-3,3-dimethylbutanoyl]-4-hydroxy-N-[(lS)-1-[4-(4-methyl-1,3-thiazol-5-yl)phenyl]ethyl]pyrrolidine-2-carboxamide] | 51 to 70% | < 50 nM | < 50 nM | > 71% | – | – |
| Cc1ncsc1-c1ccc(CNC(=O)[C@@H]2C[C@@H](O)CN2C(=O)[C@@H](NC(=O)COCCCOCCCCOc2ccc(N3C(=S)N(c4ccc(C#N)c(C(F)(F)F)c4)C(=O)C3(C)C)cc2F)C(C)(C)C)cc1 [Example 27, (2S,4R)-1-[(2S)-2-(2-{3-[4-(4-{3-[4-cyano-3-(trifluoromethyl)phenyl]-5,5-dimethyl-4-oxo-2-sulfanylideneimidazolidin-1-yl}-2-fluorophenoxy)butoxy]propoxy}acetamido)-3,3-dimethylbutanoyl]-4-hydroxy-N-{[4-(4-methyl-1,3-thiazol-5-yl)phenyl]methyl}pyrrolidine-2-carboxamide] | > 71% | < 50 nM | < 50 nM | > 71% | – | – |
| Cc1ncsc1-c1ccc(CNC(=O)[C@@H]2C[C@@H](O)CN2C(=O)[C@@H](NC(=O)COCCCOCCCCOc2ccc(N3C(=S)N(c4ccc(C#N)c(C(F)(F)F)c4)C(=O)C3(C)C)cc2)C(C)(C)C)cc1 [Example 28, (2S,4R)-1-[(2S)-2-(2-{3-[4-(4-{3-[4-cyano-3-(trifluoromethyl)phenyl]-5,5-dimethyl-4-oxo-2-sulfanylideneimidazolidin-1-yl}phenoxy)butoxy]propoxy}acetamido)-3,3-dimethylbutanoyl]-4-hydroxy-N-{[4-(4-methyl-1,3-thiazol-5-yl)phenyl]methyl}pyrrolidine-2-carboxamide] | 51 to 70% | < 50 nM | < 50 nM | > 71% | – | – |
| Cc1ncsc1-c1ccc(CNC(=O)[C@@H]2C[C@@H](O)CN2C(=O)[C@@H](NC(=O)COCCCOCCCCOc2ccc(N3C(=S)N(c4ccc(C#N)c(C(F)(F)F)c4)C(=O)C3(C)C)cc2)C(C)C)cc1 [Example 29, (2S,4R)-1-[(2S)-2-(2-{3-[4-(4-{3-[4-cyano-3-(trifluoromethyl)phenyl]-5,5-dimethyl-4-oxo-2-sulfanylideneimidazolidin-1-yl}phenoxy)butoxy]propoxy}acetamido)-3-methylbutanoyl]-4-hydroxy-N-{[4-(4-methyl-1,3-thiazol-5-yl)phenyl]methyl}pyrrolidine-2-carboxamide] | 51 to 70% | – | 51 to 500 nM | 51 to 70% | – | – |
| Cc1ncsc1-c1ccc(CNC(=O)[C@@H]2C[C@@H](O)CN2C(=O)[C@@H](NC(=O)COCCCOCCCCOc2ccc(N3C(=S)N(c4cnc(C#N)c(C(F)(F)F)c4)C(=O)C3(C)C)cc2)C(C)(C)C)cc1 [Example 30, (2S,4R)-1-[(2S)-2-(2-{3-[4-(4-{3-[6-cyano-5-(trifluoromethyl)pyridin-3-yl]-5,5-dimethyl-4-oxo-2-sulfanylideneimidazolidin-1-yl}phenoxy)butoxy]propoxy}acetamido)-3,3-dimethylbutanoyl]-4-hydroxy-N-{[4-(4-methyl-1,3-thiazol-5-yl)phenyl]methyl}pyrrolidine-2-carboxamide] | – | – | < 50 nM | > 71% | > 71% | < 50 nM |
| Cc1ncsc1-c1ccc(CNC(=O)[C@@H]2C[C@@H](O)CN2C(=O)[C@@H](NC(=O)COCCCOCCCCOc2ccc(N3C(=S)N(c4ccc(C#N)c(Cl)c4)C(=O)C3(C)C)cc2)C(C)(C)C)cc1 [Example 31, (2S,4R)-1-[(2S)-2-{2-[3-(4-{4-[3-(3-chloro-4-cyanophenyl)-5,5-dimethyl-4-oxo-2-sulfanylideneimidazolidin-1-yl]phenoxy}butoxy)propoxy]acetamido}-3,3-dimethylbutanoyl]-4-hydroxy-N-{[4-(4-methyl-1,3-thiazol-5-yl)phenyl]methyl}pyrrolidine-2-carboxamide] | > 71% | < 50 nM | < 50 nM | > 71% | – | – |
| COc1cc(N2C(=O)C(C)(C)N(c3ccc(OCCCCOCCCOCC(=O)N[C@H](C(=O)N4C[C@H](O)C[C@H]4C(=O)NCc4ccc(-c5scnc5C)cc4)C(C)(C)C)cc3)C2=S)ccc1C#N [Example 32, (2S,4R)-1-[(2S)-2-{2-[3-(4-{4-[3-(4-cyano-3-methoxyphenyl)-5,5-dimethyl-4-oxo-2-sulfanylideneimidazolidin-1-yl]phenoxy}butoxy)propoxy]acetamido}-3,3-dimethylbutanoyl]-4-hydroxy-N-{[4-(4-methyl-1,3-thiazol-5-yl)phenyl]methyl}pyrrolidine-2-carboxamide] | – | – | < 50 nM | > 71% | 51 to 70% | < 50 nM |
| Cc1ncsc1-c1ccc(CNC(=O)[C@@H]2C[C@@H](O)CN2C(=O)[C@@H](NC(=O)COCCCCOCCCOc2ccc(N3C(=S)N(c4ccc(C#N)c(C(F)(F)F)c4)C(=O)C3(C)C)cc2)C(C)(C)C)cc1 [Example 52, (2S,4R)-1-[(2S)-2-(2-{4-[3-(4-{3-[4-cyano-3-(trifluoromethyl)phenyl]-5,5-dimethyl-4-oxo-2-sulfanylideneimidazolidin-1-yl}phenoxy)propoxy]butoxy}acetamido)-3,3-dimethylbutanoyl]-4-hydroxy-N-{[4-(4-methyl-1,3-thiazol-5-yl)phenyl]methyl}pyrrolidine-2-carboxamide] | > 71% | < 50 nM | < 50 nM | > 71% | – | – |
| Cc1ncsc1-c1ccc(CNC(=O)[C@@H]2C[C@@H](O)CN2C(=O)[C@@H](NC(=O)COCC#CC#CCOc2ccc(N3C(=S)N(c4ccc(C#N)c(C(F)(F)F)c4)C(=O)C3(C)C)cc2)C(C)(C)C)cc1 [Example 54, (2S,4R)-1-((S)-2-(2-(6-(4-(3-(4-cyano-3-(trifluoromethyl)phenyl)-5,5-dimethyl-4-oxo-2-thioxoimidazolidin-1-yl)phenoxy)hexa-2,4-diynyloxy)acetamido)-3,3-dimethylbutanoyl)-4-hydroxy-N-(4-(4-methylthiazol-5-yl)benzyl)pyrrolidine-2-carboxamide] | > 71% | – | > 501 nM | < 25% | – | – |
| Cc1ncsc1-c1ccc(CNC(=O)[C@@H]2C[C@@H](O)CN2C(=O)[C@@H](NC(=O)CCOCC#CC#CCOc2ccc(N3C(=S)N(c4ccc(C#N)c(C(F)(F)F)c4)C(=O)C3(C)C)cc2)C(C)(C)C)cc1 [Example 55, (2S,4R)-1-[(2S)-2-(3-{[6-(4-{3-[4-cyano-3-(trifluoromethyl)phenyl]-5,5-dimethyl-4-oxo-2-sulfanylideneimidazolidin-1-yl}phenoxy)hexa-2,4-diyn-1-yl]oxy}propanamido)-3,3-dimethylbutanoyl]-4-hydroxy-N-{[4-(4-methyl-1,3-thiazol-5-yl)phenyl]methyl}pyrrolidine-2-carboxamide] | 51 to 70% | – | > 501 nM | 26 to 50% | – | – |
